Patent US20250179059A1 (The Regents of the University of California, priority 2021, published 2025)

Columns and labels:
[1] = molecular target: T1, human BRD4 bromodomain II (Homo sapiens, UniProt O60885); experiment: Bromodomain binding assay (AlphaScreen), BRD4 BDII; details: AlphaScreen assay, Table C2; read-out: BRD4 BDII IC50
T1 construct: human BRD4 bromodomain II [based on Genbank NM_058243, residues 349-460]; host or cells: E. coli
Procedure, shortened: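 Read-out is AlphaScreen signal (ex 680 nm, em 520-620 nm) from streptavidin donor beads on a biotinylated acetylated histone H4 (aa 1-21) peptide and nickel acceptor beads on the His6-tagged bromodomain. IC50 values come from curve fits of percentage peptide binding against compound concentration.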

[2] = system: human SKM-1 acute myeloid leukemia cells; experiment: SKM-1 antiproliferation cell-based assay (ATPlite); details: Homo sapiens, SKM-1, 96 h, SKM-1 antiproliferation assay, 4 days, Table C2
Procedure, shortened: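 Log-phase cells in RPMI 1640/15% FBS were seeded at 34722 cells/mL and exposed for 4 days to nine-concentration DMSO serial dilutions in triplicate. Viability was read as ATP luminescence (ATPlite 1step), and IC50 values came from variable-slope non-linear regression.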

Compound	IC50 [1] [nM]	GI50 [2] [nM]
COC(=O)c1ncc(-c2cc(F)cc(-c3ccc(N4CCN(C)C4=O)c(Cl)c3)c2O)cc1N1CCNCC1 [Example 376, Methyl 5-(3′-chloro-5-fluoro-2-hydroxy-4′-(3-methyl-2-oxoimidazolidin-1-yl)-[1,1′-biphenyl]-3-yl)-3-(piperazin-1-yl)picolinate]	> 100	≥ 3000
C[C@@H]1CN(c2cc(-c3cc(F)cc(-c4ccc(N5CCN(C)C5=O)c(Cl)c4)c3O)cn(C)c2=O)CCN1 [Example 377, (R)-5-(3′-chloro-5-fluoro-2-hydroxy-4′-(3-methyl-2-oxoimidazolidin-1-yl)-[1,1′-biphenyl]-3-yl)-1-methyl-3-(3-methylpiperazin-1-yl)pyridin-2(1H)-one]	1 to 10	30 to 300
CN1CCN(c2ccc(-c3cc(F)cc(-c4ccnc(C5=CCNCC5)c4)c3O)cc2Cl)C1=O [Example 379, 1-(3-chloro-5′-fluoro-2′-hydroxy-3′-(1′,2′,3′,6′-tetrahydro-[2,4′-bipyridin]-4-yl)-[1,1′-biphenyl]-4-yl)-3-methylimidazolidin-2-one]	1 to 10	30 to 300
CCc1ncc(-c2cc(F)cc(-c3ccc(N4CCN(C)C4=O)c(Cl)c3)c2O)cc1N1CCNCC1 [Example 382, 1-(3-chloro-3′-(6-ethyl-5-(piperazin-1-yl)pyridin-3-yl)-5′-fluoro-2′-hydroxy-[1,1′-biphenyl]-4-yl)-3-methylimidazolidin-2-one]	1 to 10	30 to 300
CN1CCN(c2c(F)cc(-c3cc(F)cc(-c4ccnc(N5CCNCC5)c4)c3O)cc2F)C1=O [Example 384, 1-methyl-3-(3,5,5′-trifluoro-2′-hydroxy-3′-(2-(piperazin-1-yl)pyridin-4-yl)-[1,1′-biphenyl]-4-yl)imidazolidin-2-one]	10 to 100	300 to 3000
Cc1cc(-c2cc(F)cc(-c3ccnc(N4CCNCC4)c3)c2O)cc(Cl)c1N1CCN(C)C1=O [Example 385, 1-(3-chloro-5′-fluoro-2′-hydroxy-5-methyl-3′-(2-(piperazin-1-yl)pyridin-4-yl)-[1,1′-biphenyl]-4-yl)-3-methylimidazolidin-2-one]	> 100	300 to 3000
CN1CCN(c2ccc(-c3cc(F)cc(-c4cnc(CO)c(N5CCNCC5)c4)c3O)cc2Cl)C1=O [Example 387, 1-(3-chloro-5′-fluoro-2′-hydroxy-3′-(6-(hydroxymethyl)-5-(piperazin-1-yl)pyridin-3-yl)-[1,1′-biphenyl]-4-yl)-3-methylimidazolidin-2-one]	1 to 10	30 to 300
CC(=O)Nc1ncc(-c2cc(F)cc(-c3ccc(N4CCN(C)C4=O)c(Cl)c3)c2O)cc1N1CCNCC1 [Example 389, N-(5-(3′-chloro-5-fluoro-2-hydroxy-4′-(3-methyl-2-oxoimidazolidin-1-yl)-[1,1′-biphenyl]-3-yl)-3-(piperazin-1-yl)pyridin-2-yl)acetamide]	1 to 10	30 to 300
CN1CCN(c2ccc(-c3cc(F)cc(-c4cnc(OCCO)c(N5CCNCC5)c4)c3O)cc2Cl)C1=O [Example 392, 1-(3-chloro-5′-fluoro-2′-hydroxy-3′-(6-(2-hydroxyethoxy)-5-(piperazin-1-yl)pyridin-3-yl)-[1,1′-biphenyl]-4-yl)-3-methylimidazolidin-2-one]	1 to 10	30 to 300
COCCOc1ncc(-c2cc(F)cc(-c3ccc(N4CCN(C)C4=O)c(Cl)c3)c2O)cc1N1CCNCC1 [Example 393, 1-(3-chloro-5′-fluoro-2′-hydroxy-3′-(6-(2-methoxyethoxy)-5-(piperazin-1-yl)pyridin-3-yl)-[1,1′-biphenyl]-4-yl)-3-methylimidazolidin-2-one]	1 to 10	30 to 300
CN1CCN(c2ccc(-c3cc(F)cc(-c4cc(N5CC[C@H](N)C5)c(=O)n(C)c4)c3O)cc2Cl)C1=O [Example 394, (S)-3-(3-aminopyrrolidin-1-yl)-5-(3′-chloro-5-fluoro-2-hydroxy-4′-(3-methyl-2-oxoimidazolidin-1-yl)-[1,1′-biphenyl]-3-yl)-1-methylpyridin-2(1H)-one]	1 to 10	30 to 300
CC(=O)NCCNc1ncc(-c2cc(F)cc(-c3ccc(N4CCN(C)C4=O)c(Cl)c3)c2O)cc1N1CCNCC1 [Example 395, N-(2-((5-(3′-chloro-5-fluoro-2-hydroxy-4′-(3-methyl-2-oxoimidazolidin-1-yl)-[1,1′-biphenyl]-3-yl)-3-(piperazin-1-yl)pyridin-2-yl)amino)ethyl)acetamide]	1 to 10	30 to 300
CC(=O)NCCOc1ncc(-c2cc(F)cc(-c3ccc(N4CCN(C)C4=O)c(Cl)c3)c2O)cc1N1CCNCC1 [Example 396, N-(2-((5-(3′-chloro-5-fluoro-2-hydroxy-4′-(3-methyl-2-oxoimidazolidin-1-yl)-[1,1′-biphenyl]-3-yl)-3-(piperazin-1-yl)pyridin-2-yl)oxy)ethyl)acetamide]	1 to 10	30 to 300

The remaining lines, values ahead:

IC50 [1] [nM]	GI50 [2] [nM]	Compound
1 to 10	30 to 300	CN1CCN(c2ccc(-c3cc(F)cc(-c4cc(N5CCNCC5)c(=O)n(C)c4)c3O)cc2Cl)C1=O [Example 372, 5-(3′-chloro-5-fluoro-2-hydroxy-4′-(3-methyl-2-oxoimidazolidin-1-yl)-[1,1′-biphenyl]-3-yl)-1-methyl-3-(piperazin-1-yl)pyridin-2(1H)-one]
10 to 100	300 to 3000	O=C1NCCN1c1ccc(-c2cc(F)cc(-c3ccnc(N4CCNCC4)c3)c2O)cc1Cl [Example 373, 1-(3-chloro-5′-fluoro-2′-hydroxy-3′-(2-(piperazin-1-yl)pyridin-4-yl)-[1,1′-biphenyl]-4-yl)imidazolidin-2-one]
1 to 10	300 to 3000	CCc1cc(-c2cccc(-c3ccc(N4CCN(C)C4=O)c(Cl)c3)c2O)cc(N2CCNCC2)n1 [Example 374, 1-(3-chloro-3′-(2-ethyl-6-(piperazin-1-yl)pyridin-4-yl)-2′-hydroxy-[1,1′-biphenyl]-4-yl)-3-methylimidazolidin-2-one]
10 to 100	300 to 3000	CC(=O)Nc1ccc(-c2cccc(-c3cc(OC4CCC(N)CC4)nc(N4CCNCC4)c3)c2O)cc1F (stereo not shown) [Example 375, N-(3′-(2-((4-aminocyclohexyl)oxy)-6-(piperazin-1-yl)pyridin-4-yl)-3-fluoro-2′-hydroxy-[1,1′-biphenyl]-4-yl)acetamide]
1 to 10	30 to 300	CN1CCN(c2ccc(-c3cc(F)cc(-c4cc(N5CCC[C@H](N)C5)c(=O)n(C)c4)c3O)cc2Cl)C1=O [Example 378, (S)-3-(3-aminopiperidin-1-yl)-5-(3′-chloro-5-fluoro-2-hydroxy-4′-(3-methyl-2-oxoimidazolidin-1-yl)-[1,1′-biphenyl]-3-yl)-1-methylpyridin-2(1H)-one]
1 to 10	30 to 300	Cc1cc(-c2cc(F)cc(-c3ccnc(N4CCNCC4)c3)c2O)ccc1N1CCN(C)C1=O [Example 380, 1-(5′-fluoro-2′-hydroxy-3-methyl-3′-(2-(piperazin-1-yl)pyridin-4-yl)-[1,1′-biphenyl]-4-yl)-3-methylimidazolidin-2-one]
> 100	300 to 3000	CC(=O)N1CCN(c2ccc(-c3cc(F)cc(-c4ccnc(N5CCNCC5)c4)c3O)cc2Cl)C1=O [Example 381, 1-acetyl-3-(3-chloro-5′-fluoro-2′-hydroxy-3′-(2-(piperazin-1-yl)pyridin-4-yl)-[1,1′-biphenyl]-4-yl)imidazolidin-2-one]
1 to 10	0.3 to 30	CC(=O)Nc1cc(-c2cccc(-c3ccc(N4CCN(C)C4=O)c(Cl)c3)c2O)cc(N2CCNCC2)n1 [Example 383, N-(4-(3′-chloro-2-hydroxy-4′-(3-methyl-2-oxoimidazolidin-1-yl)-[1,1′-biphenyl]-3-yl)-6-(piperazin-1-yl)pyridin-2-yl)acetamide]
> 100	300 to 3000	Cc1cc(-c2cc(F)cc(-c3ccnc(N4CCNCC4)c3)c2O)cc(Cl)c1N1CCCC1=O [Example 386, 1-(3-chloro-5′-fluoro-2′-hydroxy-5-methyl-3′-(2-(piperazin-1-yl)pyridin-4-yl)-[1,1′-biphenyl]-4-yl)pyrrolidin-2-one]
1 to 10	30 to 300	Cc1ncc(-c2cc(F)cc(-c3ccc(N4CCN(C)C4=O)c(Cl)c3)c2O)cc1N1CCNCC1 [Example 388, 1-(3-chloro-5′-fluoro-2′-hydroxy-3′-(6-methyl-5-(piperazin-1-yl)pyridin-3-yl)-[1,1′-biphenyl]-4-yl)-3-methylimidazolidin-2-one]
1 to 10	300 to 3000	CN1CCN(c2ccc(-c3cc(F)cc(-c4cnc(-c5cn[nH]c5)c(N5CCNCC5)c4)c3O)cc2Cl)C1=O [Example 390, 1-(3-chloro-5′-fluoro-2′-hydroxy-3′-(5-(piperazin-1-yl)-6-(1H-pyrazol-4-yl)pyridin-3-yl)-[1,1′-biphenyl]-4-yl)-3-methylimidazolidin-2-one]
1 to 10	30 to 300	CN1CCN(c2ccc(-c3cc(F)cc(-c4cnc(-c5ccn[nH]5)c(N5CCNCC5)c4)c3O)cc2Cl)C1=O [Example 391, 1-(3-chloro-5′-fluoro-2′-hydroxy-3′-(5-(piperazin-1-yl)-6-(1H-pyrazol-5-yl)pyridin-3-yl)-[1,1′-biphenyl]-4-yl)-3-methylimidazolidin-2-one]
1 to 10	30 to 300	CN1CCN(c2ccc(-c3cc(F)cc(-c4cnc(N5CCCC5)c(N5CCNCC5)c4)c3O)cc2Cl)C1=O [Example 397, 1-(3-chloro-5′-fluoro-2′-hydroxy-3′-(5-(piperazin-1-yl)-6-(pyrrolidin-1-yl)pyridin-3-yl)-[1,1′-biphenyl]-4-yl)-3-methylimidazolidin-2-one]
